Experimental data published in US5087624A, “Chromic picolinate treatment” (Nutrition 21, priority 1990, dated 1992).
“And” between values parts separate entries of the source, which are not always exact repeats. Equal entries are not always repeated. “Also recorded” adds a separate entry of the source.

Legend:
[1] = supplemental trivalent chromium; cited from earlier work
[2] = Absorption of orally given Cr-51 labelled chromium: radioactivity in liver and kidney; assay type: in vivo, male Sprague-Dawley rats; conditions: relative to chromic chloride, from Table 1
Description: The solution was cooled to room temperature before use.

rats = test: Oral toxicity experiment; assay type: in vivo, rat
Experimental: In a toxicity experiment, rats weighing a mean of 223.4 g were given an oral suspension of 100 mg, 300 mg and 500 mg chromic tripicolinate in water. […] The tests were stopped at 500 mg because it was impossible to obtain a workable suspension beyond this level.

[3] = Double-blind cross-over study of serum lipids (EXAMPLE 3); assay type: in vivo, human
Experimental: The placebo contained only 5 mg calcium phosphate. […] Compliance by subjects was monitored by capsule count. The foregoing study protocol is illustrated in FIG. 1.
Student's t test and p values were determined with the program WORMSTAT^TM (available from Small Business Computers, New England, U.S.A.).

[4] = Cross-over study in subjects with adult onset diabetes mellitus (EXAMPLE 4); assay type: in vivo, human
Description: Normal values are 5.5% to 7.5%.

[5] = Anabolic effect in male weight-training students (EXAMPLE 5); assay type: in vivo, human
Experimental: This study was performed to evaluate the anabolic effect of chromic tripicolinate in male subjects.
At the start of the study, 10 male university students enrolled in weight training classes, were given, at random, a 40-day supply of capsules that contained either placebo (5 mg of calcium phosphate) or chromic tripicolinate (1.6 mg chromic tripicolinate admixed with 5 mg of […], which provided 200 ug of chromium). The identity of the capsules was known only to an individual who was not in any way involved in the study. During the 40-day period, each of the volunteers followed a prescribed weight lifting protocol for a total of 3 hours per week. Measurements taken at the beginning and again at the end of the study included various skin-fold thicknesses, bicep and calf circumferences, and body weight. Percent body fat was derived from the sum of the triceps, subscapular and chest skinfolds. Lean body mass was derived from anthropometrically-determined percent body fat: weight -(weight ×percent body fat).

insulin = test: Binding to insulin
insulin receptors = test: Binding to insulin receptors
[6] = system: Glucose Tolerance Factor activity; test: Glucose Tolerance Factor activity
[7] = start of 42-day treatment (baseline), mean ± SD of 28 subjects

## [Cl][Cr]([Cl])[Cl] [chromic chloride]
[1]
  risk factors associated with maturity-onset diabetes and cardiovascular diseases: associated with improvements of risk factors

## chromic tripicolinate
[2]
  rate of absorption greater than that of chromic chloride: about 4 times
rats; 70 Kg human, extrapolated from rat
  dose to be ingested before any effects would be observed: > 156 grams
rats; oral suspension 100 mg, 300 mg and 500 mg in water
  deaths: No deaths occurred
rats; rats, oral
  oral lethal dose: > 2200 mg/kg
[3]; 28 subjects, 42 days
  Apolipoprotein B reduction: 16%
  LDL-cholesterol decrease: 10%
  Total cholesterol decrease: 7%
[3]; 28 subjects, 42 days, p<0.001
  LDL-cholesterol change: significant (p<0.001) reductions
  Total cholesterol change: significant (p<0.001) reductions
[3]; 28 subjects, p=0.001
  Apolipoprotein B change: decreased significantly
[3]; 28 subjects, p=0.003
  Apolipoprotein A1 change: significantly elevated
[3]; 200 micrograms Cr daily
  fine rash about forearms: one subject on chromium supplementation
  mouth ulcers: the other on chromium supplement
[3]; 42 days
  blood pressure change: No significant changes
  heart rate change: No significant changes
  serum triglycerides change: No significant changes
  temperature change: No significant changes
  weight change: No significant changes
[3]; 42 days, 28 subjects, p = .001
  Apo B, Chng.: -25 mg/dL
[3]; 42 days, 28 subjects, p = .003
  Apo A, Chng.: +16 mg/dl
[3]; end of 42-day treatment, mean ± SD of 28 subjects
  Apo B, Final: 130 mg/dL
[3]; final 42 days, placebo-first group, p=0.003
  LDL-cholesterol change: decreased significantly
[3]; final 42 days, placebo-first group, p=0.009
  Total cholesterol change: decreased significantly
[3]; first 6-week period, chromic tripicolinate-first group, p=0.003
  Apolipoprotein B change: significantly decreased
[3]; first 6-week period, chromic tripicolinate-first group, p=0.007
  Total cholesterol change: significantly decreased
[3]; first 6-week period, chromic tripicolinate-first group, p=0.015
  LDL-cholesterol change: significantly decreased
[3]; first 6-week period, chromic tripicolinate-first group, p=0.047
  Apolipoprotein A1 change: significantly elevated
[3]; in vivo
  other abnormalities: No other abnormalities were noted
[3]; of final 28 subjects
  subjects with decreased LDL-cholesterol: 20
  subjects with lower total cholesterol: 22
  subjects with total cholesterol elevated less than 0.1 mmole/1 (5 mg/dl): 4
  subjects with unchanged LDL-cholesterol: 3
  subjects with unchanged total cholesterol: 2
[3]; p>0.05
  HDL-cholesterol change: increased slightly but not significantly
[3]; placebo-first group, after supplementation, p=0.072
  Apolipoprotein B change: decreased, but not significantly
[3]; placebo-first group, supplementation period, p=0.007
  Apolipoprotein A1 change: increased significantly
[3]; [7]
  Apo A, Init: 147 ± 28 mg/dL
  Apo B, Init: 155 ± 50 mg/dL and 155 mg/dL
[3]; summary
  Apolipoprotein A1 change, summary: elevated; also recorded: significant elevation
  Apolipoprotein B change, summary: decreased; also recorded: significant reduction
[3]; summary of Examples 3 and 4
  LDL-cholesterol change, summary: decreased
  Total cholesterol change, summary: decreased
[4]; P was not <0.05
  HDL trend: trends were favorable
  cholesterol trend: trends were favorable
[4]; diabetic subjects
  LDL decrease: 8%
  blood pressure change: no significant changes
  fasting glucose change: significant decreases
  glycosylated hemoglobin change: significant decreases
  heart rate change: no significant changes
  temperature change: no significant changes
  weight change: no significant changes
[4]; treatment versus placebo groups
  Hemoglobin A1 C decrease: 12%
[5]; 40 days, P=0.0056
  bicep circumference increase: 1.4±0.45 cm
[5]; 40 days, P=0.017
  calculated lean body mass increase: 1.6 kg
[5]; Student's t test, P=0.0198
  increase in lean body mass compared with placebo group: significantly greater
insulin
  binding to insulin: binds to insulin
Insulin receptors
  binding to insulin receptors: binds to insulin and insulin receptors
[6]
  Glucose Tolerance Factor activity: has Glucose Tolerance Factor activity
